Among the data in the supplement of paper PMC10307832 are relative viability values, retold here.

Common to all, as to assay: relative viability (nuclei count vs DMSO), 5 days (fraction); higher = more cells survive
Compound in the test “IMD-0354 + Alpelisib”: O=C(Nc1cc(C(F)(F)F)cc(C(F)(F)F)c1)c1cc(Cl)ccc1O [IMD-0354] + Cc1nc(NC(=O)N2CCC[C@H]2C(N)=O)sc1-c1ccnc(C(C)(C)C(F)(F)F)c1 [Alpelisib] (partner 2 µM)
Summed up: (§1)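 Lung cancer cell lines in 1536-well plates got either a single drug or a fixed anchor-drug dose together with five library-drug doses (not always all listed) in √10 steps, by pin tool, on the day after seeding. Nuclei were counted after 5 days, and relative viability is the treated-to-vehicle ratio of nuclei counts. Values are medians of duplicate plates.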

Compound in the test “CX-5461 + Vorinostat”: Cc1cnc(CNC(=O)c2c(=O)c3ccc(N4CCCN(C)CC4)nc3n3c2sc2ccccc23)cn1 [CX-5461] + O=C(CCCCCCC(=O)Nc1ccccc1)NO [Vorinostat] (partner 1 µM)
The method in brief:
as §1

Compound in the test “CX-5461 + Decitabine”: Cc1cnc(CNC(=O)c2c(=O)c3ccc(N4CCCN(C)CC4)nc3n3c2sc2ccccc23)cn1 [CX-5461] + Nc1ncn([C@H]2C[C@H](O)[C@@H](CO)O2)c(=O)n1 [Decitabine] (partner 2 µM)
Summed up: as §1

Compound in the test “IMD-0354 + Lapatinib”: O=C(Nc1cc(C(F)(F)F)cc(C(F)(F)F)c1)c1cc(Cl)ccc1O [IMD-0354] + CS(=O)(=O)CCNCc1ccc(-c2ccc3ncnc(Nc4ccc(OCc5cccc(F)c5)c(Cl)c4)c3c2)o1 [Lapatinib] (partner 2 µM)
The method in brief:
as §1

With NCI-H460, the relative viability was found to be 0.544 in the test with IMD-0354 + Alpelisib (first compound 0.04 µM); 0.49 with IMD-0354 + Alpelisib (first compound 0.1265 µM); 0.2 in the test with IMD-0354 + Alpelisib (first compound 0.4 µM); 0.0672 with IMD-0354 + Alpelisib (first compound 1.265 µM); 0.0154 with IMD-0354 + Alpelisib (first compound 4 µM); 0.721 with CX-5461 + Vorinostat (first compound 0.01 µM). Moreover, the relative viability was 0.909 in the test with CX-5461 + Vorinostat (first compound 0.03162 µM); 0.216 in the test with CX-5461 + Vorinostat (first compound 0.1 µM); 0.48 in the test with CX-5461 + Vorinostat (first compound 0.3162 µM); 0.0282 with CX-5461 + Vorinostat (first compound 1 µM); 0.551 with CX-5461 + Decitabine (first compound 0.01 µM); 0.429 with CX-5461 + Decitabine (first compound 0.03162 µM). Besides, the relative viability with CX-5461 + Decitabine (first compound 0.1 µM) came out at 0.228; with CX-5461 + Decitabine (first compound 0.3162 µM) it was 0.391; in the test with CX-5461 + Decitabine (first compound 1 µM) it was 0.0313; with IMD-0354 + Lapatinib (first compound 0.04 µM), 1.08; with IMD-0354 + Lapatinib (first compound 0.1265 µM), 0.679; in the test with IMD-0354 + Lapatinib (first compound 0.4 µM), 0.178. The relative viability with IMD-0354 + Lapatinib (first compound 1.265 µM) is 0.0562; with IMD-0354 + Lapatinib (first compound 4 µM) it was 0.0153.

Regarding NCI-H520, the relative viability in the test with IMD-0354 + Alpelisib (first compound 0.04 µM) is 0.906; with IMD-0354 + Alpelisib (first compound 0.1265 µM) it was 0.948; with IMD-0354 + Alpelisib (first compound 0.4 µM), 0.381; in the test with IMD-0354 + Alpelisib (first compound 1.265 µM), 0.383; in the test with IMD-0354 + Alpelisib (first compound 4 µM), 0.214; with CX-5461 + Vorinostat (first compound 0.01 µM) it was 0.734. For the same cell line, the relative viability was 0.681 with CX-5461 + Vorinostat (first compound 0.03162 µM); 0.661 in the test with CX-5461 + Vorinostat (first compound 0.1 µM); 0.642 in the test with CX-5461 + Vorinostat (first compound 0.3162 µM); 0.291 in the test with CX-5461 + Vorinostat (first compound 1 µM); 0.529 with CX-5461 + Decitabine (first compound 0.01 µM); 0.52 with CX-5461 + Decitabine (first compound 0.03162 µM). The relative viability is 0.483 with CX-5461 + Decitabine (first compound 0.1 µM); 0.465 with CX-5461 + Decitabine (first compound 0.3162 µM); 0.362 in the test with CX-5461 + Decitabine (first compound 1 µM); 0.932 in the test with IMD-0354 + Lapatinib (first compound 0.04 µM); 0.792 with IMD-0354 + Lapatinib (first compound 0.1265 µM); 0.46 with IMD-0354 + Lapatinib (first compound 0.4 µM). Moreover, the relative viability in the test with IMD-0354 + Lapatinib (first compound 1.265 µM) and in the test with IMD-0354 + Lapatinib (first compound 4 µM) was 0.197 in each case.

Regarding NCI-H596, the relative viability in the test with IMD-0354 + Alpelisib (first compound 0.04 µM) was determined as 0.484; in the test with IMD-0354 + Alpelisib (first compound 0.1265 µM), 0.458; in the test with IMD-0354 + Alpelisib (first compound 0.4 µM) it was 0.466; with IMD-0354 + Alpelisib (first compound 1.265 µM), 0.528; with IMD-0354 + Alpelisib (first compound 4 µM), 0.326; in the test with CX-5461 + Vorinostat (first compound 0.01 µM), 0.608. Moreover, the relative viability turned out to be 0.686 with CX-5461 + Vorinostat (first compound 0.03162 µM); 0.664 with CX-5461 + Vorinostat (first compound 0.1 µM); 0.706 in the test with CX-5461 + Vorinostat (first compound 0.3162 µM); 0.306 in the test with CX-5461 + Vorinostat (first compound 1 µM); 1.14 with CX-5461 + Decitabine (first compound 0.01 µM); 0.994 with CX-5461 + Decitabine (first compound 0.03162 µM). For the same cell line, the relative viability in the test with CX-5461 + Decitabine (first compound 0.1 µM) was found to be 1.06; with CX-5461 + Decitabine (first compound 0.3162 µM) it was 1.05; with CX-5461 + Decitabine (first compound 1 µM) it was 0.872; in the test with IMD-0354 + Lapatinib (first compound 0.04 µM), 0.989; with IMD-0354 + Lapatinib (first compound 0.1265 µM) it was 1.22; in the test with IMD-0354 + Lapatinib (first compound 0.4 µM), 0.823. Also, the relative viability was determined as 1.07 with IMD-0354 + Lapatinib (first compound 1.265 µM) and 0.474 with IMD-0354 + Lapatinib (first compound 4 µM).

NCI-H647: the relative viability in the test with IMD-0354 + Alpelisib (first compound 0.04 µM) was 1.77; with IMD-0354 + Alpelisib (first compound 0.1265 µM), 0.995; with IMD-0354 + Alpelisib (first compound 0.4 µM), 0.623; with IMD-0354 + Alpelisib (first compound 1.265 µM), 0.144; with IMD-0354 + Alpelisib (first compound 4 µM), 0.173; in the test with CX-5461 + Vorinostat (first compound 0.01 µM) it was 0.646. In addition, the relative viability is 0.536 with CX-5461 + Vorinostat (first compound 0.03162 µM); 0.441 with CX-5461 + Vorinostat (first compound 0.1 µM); 0.548 with CX-5461 + Vorinostat (first compound 0.3162 µM); 0.251 in the test with CX-5461 + Vorinostat (first compound 1 µM); 0.443 with CX-5461 + Decitabine (first compound 0.01 µM); 0.461 with CX-5461 + Decitabine (first compound 0.03162 µM). Further, the relative viability was determined as 0.325 with CX-5461 + Decitabine (first compound 0.1 µM); 0.417 with CX-5461 + Decitabine (first compound 0.3162 µM); 0.15 with CX-5461 + Decitabine (first compound 1 µM); 1.63 in the test with IMD-0354 + Lapatinib (first compound 0.04 µM); 0.859 in the test with IMD-0354 + Lapatinib (first compound 0.1265 µM); 0.495 with IMD-0354 + Lapatinib (first compound 0.4 µM). Besides, the relative viability with IMD-0354 + Lapatinib (first compound 1.265 µM) was determined as 0.193; with IMD-0354 + Lapatinib (first compound 4 µM), 0.0984.
